In one assay the test system is KMS-12-PE cells. In words: Cell proliferation assay (alamarBlue), KMS-12-PE. The note with it: Homo sapiens, 120 hours incubation, inhibition of cell proliferation. Type of assay: cell-based. As to the method:
(§1) In accordance with the invention, the capability of the substances to inhibit cell proliferation was determined Cell viability was determined using the alamarBlue® reagent (Invitrogen) in a Victor X3 Multilabel Reader (Perkin Elmer). The excitation wavelength was 530 nm and the emission wavelenth […].
The KMS-12-PE cells (DSMZ, ACC 606) were sown at a concentration of 4000 cells/well in 100 μl growth medium (RPMI1640, 20% FCS) on 96-well microtitre plates.
(§2) After an overnight incubation at 37° C., the fluorescence values (CI values) were determined. The plates were then treated with various substance dilutions (1E-5 M, 3E-6 M, 1E-6M, 3E-7 M, 1E-7 M, 3E-8 M, 1E-8 M) and incubated at 37° C. for 72 (MV4-11-, LOX-IMVI cells), 96 (MOLM-13-, B16F10-, MDA-MB-431-, Caov-3 cells), 120 (MOLP-8-, KMS-12-PE cells) or 168 (LAPC-4 cells) hours. The fluorescence values (CO values) were then determined. For the data analysis, the CI values were subtracted from the CO values and the results were compared between cells treated with different dilutions of the substance or with buffer solution only. These were used to calculate the IC 50 values (substance concentration required for 50% inhibition of cell proliferation).
Background: Alamar Blue is a resazurin reagent that responds to reducing activity.

A further assay has as its system MOLM-13 cells. In words: Cell proliferation assay (alamarBlue), MOLM-13. Type of assay: cell-based. The note with it: Homo sapiens, 96 hours incubation, inhibition of cell proliferation. The gist of the method:
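Cells in RPMI1640/10% FCS read by alamarBlue fluorescence (ex 530, em 590 nm) after overnight 37 °C incubation, then treated at 1E-5 to 1E-8 M for 96 h. Pre-treatment values subtracted from endpoint values and compared with buffer-only wells; IC50 is 50% proliferation inhibition.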

Another assay has as its system LOX-IMVI cells. Put plainly: Cell proliferation assay (alamarBlue), LOX-IMVI. The following applies: Homo sapiens, 72 hours incubation, inhibition of cell proliferation. Type of assay: cell-based. As for the experimental part: as §1
The LOX-IMVI cells (NCI-60) were sown at a concentration of 1000 cells/well in 100 μl growth medium (RPMI1640, 10% FCS) on 96-well microtitre plates.
as §2

For another assay, the system named is Caov-3 cells. Put plainly: Cell proliferation assay (alamarBlue), Caov-3. Type of assay: cell-based. The note with it: Homo sapiens; inhibition of cell proliferation, Caov-3 (ovarian carcinoma), 96 hours. As to the method: as §1
The MDA-MB-231 cells (DSMZ, ACC 732) were sown at a concentration of 4000 cells/well in 100 μl growth medium (DMEM/Ham's F12 medium, 10% FCS) on 96-well microtitre plates. The Caov-3 cells (ATCC, HTB-75) were sown at a concentration of 2000 cells/well in 100 μl growth medium (MEM Earle's medium, 10% FCS) on 96-well microtitre plates.
as §2

A further assay relates to MOLP-8 cells. Put plainly: Cell proliferation assay (alamarBlue), MOLP-8. The following applies: Homo sapiens, 120 hours incubation, inhibition of cell proliferation. Type of assay: cell-based. As to the method:
as §1
The MOLP-8 cells (DSMZ, ACC 569) were sown at a concentration of 4000 cells/well in 100 μl growth medium (RPMI1640, 20% FCS) on 96-well microtitre plates.
as §2

Another assay deals with T1, BRD4 (BD1) (Homo sapiens, UniProt O60885).
T1 construct: with relatively long constructs also being possible, preferably amino acids 44-168; made in house; host or cells: E. coli
Put plainly: Binding assay BRD4/acetylated peptide H4 (TR-FRET protein-protein interaction assay). In short, it runs like this: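 His6-BRD4 BD1 (aa 67-152, E. coli), usually 10 nM, with biotinylated tetra-acetylated H4 peptide in HEPES pH 7.5 buffer; 11 compound concentrations 0.1 nM–20 μM in duplicate, 10 min preincubation, 1 h at 22 °C then ≥3 h at 4 °C. TR-FRET 665/620 ratio; IC50 by 4-parameter fit.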

A further assay relates to MV4-11 cells. Put plainly: Cell proliferation assay (alamarBlue), MV4-11. Type of assay: cell-based. The following applies: Homo sapiens, 72 hours incubation, inhibition of cell proliferation. As to the method:
as §1
The MV4-11 cells (ATCC, CRL 9591) were sown at a concentration of 5000 cells/well in 100 μl growth medium (RPMI1640, 10% FCS) on 96-well microtitre plates.
as §2

Where only a bound is given, the exact number is not on record here.

Usually IC50 stands for the point on the concentration scale where inhibition reaches its midpoint. With `CNC(=O)N1N=C(c2ccc(-c3cn(C)nn3)cc2)c2cc(OC)c(OC)cc2CC1C` (racemic) [Example 45, (±)-7,8-dimethoxy-N,4-dimethyl-1-[4-(1-methyl-1H-1,2,3-triazol-4-yl)phenyl]-4,5-dihydro-3H-2,3-benzodiazepine-3-carboxamide], the IC50 stood at 130 nM in the assay with KMS-12-PE cells; 230 nM in the assay on MOLM-13 cells; 350 nM in the assay on LOX-IMVI cells; 240 nM in the assay with Caov-3 cells; 130 nM in the assay on MOLP-8 cells; 40 nM on BRD4 (BD1). Further, the IC50 in the assay on MV4-11 cells came out at 140 nM.

For `CNC(=O)N1N=C(c2ccc(N3CCC3)cc2)c2cc(OC)c(OC)cc2CC1C` (racemic) [Example 128, (±)-1-[4-(azetidin-1-yl)phenyl]-7,8-dimethoxy-N,4-dimethyl-4,5-dihydro-3H-2,3-benzodiazepine-3-carboxamide], the IC50 with KMS-12-PE cells stood at 100 nM; in the assay on MOLM-13 cells, 230 nM; with LOX-IMVI cells it was 390 nM; in the assay on Caov-3 cells, 320 nM; in the assay on MOLP-8 cells, 100 nM; at BRD4 (BD1), 30 nM.

In the case of `CNC(=O)N1N=C(c2ccc(Cl)cc2)c2cc(OCc3cccc(C)n3)ccc2CC1C` (racemic) [Example 167], the IC50 in the assay on MOLM-13 cells turned out to be 3240 nM; in the assay with MOLP-8 cells it was 2950 nM; on BRD4 (BD1), 310 nM.

As to `CNC(=O)N1N=C(c2ccc(-c3c(C)noc3C)cc2)c2cc(O)ccc2CC1C` (racemic) [Example 168, (±)-1-[4-(3,5-Dimethylisoxazol-4-yl)phenyl]-8-hydroxy-N,4-dimethyl-4,5-dihydro-3H-2,3-benzodiazepine-3-carboxamide], the values for the IC50 in the assay on MOLM-13 cells, at BRD4 (BD1) and with MV4-11 cells were 390 nM, 110 nM and 220 nM, respectively.

On to `CNC(=O)N1N=C(c2ccc(-c3c(C)noc3C)cc2)c2cc(OCCCN3CCOCC3)ccc2CC1C` (racemic) [Example 169, (±)-1-[4-(3,5-Dimethylisoxazol-4-yl)phenyl]-N,4-dimethyl-8-[3-(morpholin-4-yl)propoxy]-4,5-dihydro-3H-2,3-benzodiazepine-3-carboxamide], for which the IC50 in the assay on KMS-12-PE cells was 120 nM; with MOLM-13 cells, 240 nM; in the assay on LOX-IMVI cells, 410 nM; with Caov-3 cells, 370 nM; with MOLP-8 cells, 120 nM; on BRD4 (BD1), 30 nM.

As to `CNC(=O)N1N=C(c2ccc(Cl)cc2)c2cc(-n3nc(C)cc3C)ccc2CC1C` (racemic) [Example 174, (±)-1-(4-Chlorophenyl)-8-(3,5-dimethyl-1H-pyrazol-1-yl)-N,4-dimethyl-4,5-dihydro-3H-2,3-benzodiazepine-3-carboxamide], the IC50 in the assay with MOLM-13 cells was 2340 nM; in the assay with MOLP-8 cells it was 2030 nM; at BRD4 (BD1), 250 nM.

Consider `CNC(=O)N1N=C(c2ccc(-c3sc(C)nc3C)cc2)c2cc(OC)c(OC)cc2C[C@H]1C` (single isomer, unassigned) [Example 46.2], for which the IC50 in the assay with MOLM-13 cells is above 10000 nM; in the assay on MOLP-8 cells, 9470 nM; at BRD4 (BD1), 1160 nM.

On to `CNC(=O)N1N=C(c2ccc(N3CCOCC3)cc2)c2cc(OC)c(OC)cc2C[C@@H]1C` [Example 7.2, (4S)-7,8-dimethoxy-N,4-dimethyl-1-[4-(morpholin-4-yl)phenyl]-4,5-dihydro-3H-2,3-benzodiazepine-3-carboxamide], for which the IC50 was found to be 50 nM with KMS-12-PE cells; 100 nM in the assay with MOLM-13 cells; 190 nM in the assay on LOX-IMVI cells; 50 nM with MOLP-8 cells; 30 nM on BRD4 (BD1); 60 nM in the assay on MV4-11 cells.

Take `CNC(=O)N1N=C(c2ccc(N3CC(F)C3)cc2)c2cc(OC)c(OC)cc2C[C@@H]1C` [Example 129.2, (4S)-1-[4-(3-fluoroazetidin-1-yl)phenyl]-7,8-dimethoxy-N,4-dimethyl-4,5-dihydro-3H-2,3-benzodiazepine-3-carboxamide]: the IC50 in the assay with MOLM-13 cells was determined as 150 nM; in the assay with MOLP-8 cells it was 80 nM; on BRD4 (BD1), 20 nM.

Take `CC[C@H]1Cc2cc(OC)c(OC)cc2C(c2ccc(N3CCN(C)CC3)cc2)=NN1C(=O)NC` [Example 201.1, (4S)-4-ethyl-7,8-dimethoxy-N-methyl-1-[4-(4-methylpiperazin-1-yl)phenyl]-4,5-dihydro-3H-2,3-benzodiazepine-3-carboxamide]: the IC50 was found to be 1990 nM in the assay with MOLM-13 cells and 710 nM on BRD4 (BD1).

On to `CC[C@H]1Cc2cc(OC)c(OC)cc2C(c2ccc(N3CCNCC3)cc2)=NN1C(=O)NC` [Example 202.1, (4S)-4-ethyl-7,8-dimethoxy-N-methyl-1-[4-(piperazin-1-yl)phenyl]-4,5-dihydro-3H-2,3-benzodiazepine-3-carboxamide], for which the IC50 in the assay on MOLM-13 cells was 580 nM; on BRD4 (BD1), 640 nM.

On to `CC[C@H]1Cc2cc(OC)c(OC)cc2C(c2ccc(N3CCN(S(C)(=O)=O)CC3)cc2)=NN1C(=O)NC` [Example 203.1, (4S)-4-ethyl-7,8-dimethoxy-N-methyl-1-{4-[4-(methylsulphonyl)piperazin-1-yl]phenyl}-4,5-dihydro-3H-2,3-benzodiazepine-3-carboxamide], for which the figures for the IC50 with MOLM-13 cells and on BRD4 (BD1) were 1270 nM and 260 nM, respectively.

With `CC[C@H]1Cc2cc(OC)c(OC)cc2C(c2ccc(N3CCOCC3)cc2)=NN1C(=O)NC` [Example 209, (4S)-4-ethyl-7,8-dimethoxy-N-methyl-1-[4-(morpholin-4-yl)phenyl]-4,5-dihydro-3H-2,3-benzodiazepine-3-carboxamide], the values for the IC50 in the assay on MOLM-13 cells and on BRD4 (BD1) were 190 nM and 370 nM, respectively.

In the case of `CNC(=O)N1N=C(c2ccc(N3CCCN(C)CC3=O)cc2)c2cc(OC)c(OC)cc2C[C@@H]1C` [Example 229, (4S)-7,8-dimethoxy-N,4-dimethyl-1-[4-(4-methyl-2-oxo-1,4-diazepan-1-yl)phenyl]-4,5-dihydro-3H-2,3-benzodiazepine-3-carboxamide], the IC50 with MOLM-13 cells came to 140 nM; at BRD4 (BD1) it was 70 nM.

In the case of `CNC(=O)N1N=C(c2ccc(-c3c(C)nn(C)c3C)cc2)c2cc(OC(F)(F)F)ccc2C[C@@H]1C` [Example 249.1, (4S)-N,4-dimethyl-8-(trifluoromethoxy)-1-[4-(1,3,5-trimethyl-1H-pyrazol-4-yl)phenyl]-4,5-dihydro-3H-2,3-benzodiazepine-3-carboxamide], the IC50 amounted to 60 nM in the assay on MOLM-13 cells and 20 nM on BRD4 (BD1).

Regarding `CNC(=O)N1N=C(c2ccc(N3CCN(C)CC3)c(Br)c2)c2cc(OC)c(OC)cc2C[C@@H]1C` [Example 253, (4S)-1-[3-Bromo-4-(4-methylpiperazin-1-yl)phenyl]-7,8-dimethoxy-N,4-dimethyl-4,5-dihydro-3H-2,3-benzodiazepine-3-carboxamide], the results for the IC50 in the assay on MOLM-13 cells and on BRD4 (BD1) were 60 nM and 40 nM, respectively.

In the case of `CNC(=O)N1N=C(c2ccc(N3CCN(C)CC3)c(C#N)c2)c2cc(OC)c(OC)cc2C[C@@H]1C` [Example 254, (4S)-1-[3-Cyano-4-(4-methylpiperazin-1-yl)phenyl]-7,8-dimethoxy-N,4-dimethyl-4,5-dihydro-3H-2,3-benzodiazepine-3-carboxamide], the IC50 in the assay on MOLM-13 cells was 170 nM; at BRD4 (BD1), 110 nM.

The values above are taken from patent US9890147B2 (BAYER PHARMA AKTIENGESELLSCHAFT, priority 2012, dated 2018).
